Reference: US4556660A, “N-(Bicyclic heterocyclyl)-4-piperidinamines” (Janssen Pharmaceutica N.V., priority 1983, dated 1985)

Assays:
[1] = system: compound 48/80-induced lethality; assay: Protection of rats from compound 48/80-induced lethality; type: in vivo, Male rats of an inbred Wistar strain; details: Rattus norvegicus, 4 h, read-out: compound 48/80 lethality test rats-ED50
[2] = system: serotonin; compound 48/80-induced gastric lesions; assay: Antagonistic activity on the effects of serotonin in the gastric lesion test (lesions induced by compound 48/80); type: in vivo, Male rats of a Wistar inbred strain; details: Rattus norvegicus, po; read-out: gastric lesion test ED50
[3] = system: compound 48/80-induced cyanosis, lesions in the glandular area of the stomach and abnormal gastric distension; details: rats injected with compound 48/80; cited from earlier work

Structure (SMILES)	ED50 [1]	ED50 [2]	prevention of cyanosis of ears and extremities, lesions in the glandular area of the stomach and abnormal gastric distension [3]
CCCc1cc(O)nc(NCCN2CCC(Nc3nc4ccccc4n3Cc3ccc(F)cc3)CC2)n1 [Compound 86, 2-[[2-[4-[[1-[(4-fluorophenyl)methyl]-1H-benzimidazol-2-yl]amino]-1-piperidinyl]ethyl]amino]-6-propyl-4-pyrimidinol]	0.31 mg/kg	2.5 mg/kg	–
O=c1ccnc(NCCN2CCC(Nc3nc4ccccc4n3Cc3ccc(F)cc3)CC2)[nH]1 [Compound 87]	0.08 mg/kg	0.63 mg/kg	–
O=c1nc(NCCN2CCC(Nc3nc4ccccc4n3Cc3ccc(F)cc3)CC2)[nH]c2ccccc12 [Compound 88, 2-[[2-[4-[[1-[(4-fluorophenyl)methyl]-1H-benzimidazol-2-yl]amino]1-piperidinyl]ethyl]amino]-4(1H)-quinazolinone]	0.63 mg/kg	2.5 mg/kg	–
Cc1cc(=O)[nH]c(NCCN2CCC(Nc3nc4ccccc4n3Cc3ccc(F)cc3)CC2)n1 [Compound 90]	0.16 mg/kg	0.63 mg/kg	–
Fc1ccc(Cn2c(NC3CCN(CCSc4ncccn4)CC3)nc3ccccc32)cc1 [Compound 91, 1-[(4-fluorophenyl)methyl]-N-[1-[2-(2-pyrimidinylthio)ethyl]-4-piperidinyl]-1H-benzimidazol-2-amine]	0.16 mg/kg	0.16 mg/kg	–
O.O=c1nc(SCCN2CCC(Nc3nc4ccccc4n3Cc3ccc(F)cc3)CC2)[nH]c2ccccc12 [Compound 92, 2-[2-[4-[[1-[(4-fluorophenyl)methyl]-1H-benzimidazol-2-yl]amino]-1-piperidinyl]ethylthio]-4(1H)-quinazolinone monohydrate]	0.31 mg/kg	2.5 mg/kg	–
Cl.Cl.Cl.Nc1cccnc1NCCN1CCC(Nc2nc3ccccc3n2Cc2ccc(F)cc2)CC1 [Compound 93, N^2-[2-[4-[[1-[(4-fluorophenyl)methyl] -1H-benzimidazol-2-yl]amino]-1-piperidinyl]ethyl]-2,3-pyridinediamine trihydrochloride]	0.08 mg/kg	0.31 mg/kg	–
Fc1ccc(Cn2c(NC3CCN(CCNc4ccncn4)CC3)nc3ccccc32)cc1 [Compound 94, 1-[(4-fluorophenyl)methyl]-N-[1-[2-(4-pyrimidinylamino)ethyl]-4-piperidinyl]-1H-benzimidazol-2-amine hemihydrate]	0.08 mg/kg	1.25 mg/kg	–
Nc1cncnc1NCCN1CCC(Nc2nc3ccccc3n2Cc2ccc(F)cc2)CC1 [Compound 96, N^4-[2-[4-[[1-[(4-fluorophenyl)methyl]-1H-benzimidazol-2-yl]amino]-1-piperidinyl]ethyl]-4,5-pyrimidinediamine]	0.08 mg/kg	0.02 mg/kg	–
Fc1ccc(Cn2c(NC3CCN(C4CCN(c5ccccn5)CC4)CC3)nc3ccccc32)cc1 [Compound 97, N-[1-[(4-fluorophenyl)methyl]-1H-benzimidazol-2-yl]-1'-(2-pyridinyl)-[1,4'-bipiperidin]-4-amine (E)-2-butenedioate (2:3) monohydrate]	0.63 mg/kg	2.5 mg/kg	–
CC(=O)N(CCN1CCC(Nc2nc3ccccc3n2Cc2ccc(F)cc2)CC1)c1ncccn1.O=C(O)/C=C/C(=O)O.O=C(O)/C=C/C(=O)O [Compound 99, N-[2-[4-[[1-[(4-fluorophenyl)methyl]-1H-benzimidazol-2-yl]amino]-1-piperidinyl]ethyl]-N-(2-pyrimidinyl)acetamide (E)-2-butenedioate (1:2)]	0.04 mg/kg	0.63 mg/kg	–
O=C(c1ccccc1)N(CCN1CCC(Nc2nc3ccccc3n2Cc2ccc(F)cc2)CC1)c1ncccn1 [Compound 100, N-[2-[4-[[1-fluorophenyl)methyl]-1H-benzimidazol-2-yl]amino]-1-piperidinyl]ethyl]-N-(2-pyrimidinyl)benzamide (E)-2-butenedioate (1:2)]	0.08 mg/kg	0.63 mg/kg	–
Fc1ccc(Cn2c(NC3CCN(CCNC(=S)Nc4cccnc4)CC3)nc3ccccc32)cc1 [Compound 104, N-[2-[4-[[1-[(4-fluorophenyl)methyl]-1H-benzimidazol-2-yl]amino]-1-piperidinyl]ethyl]-N'-(3-pyridinyl)thiourea]	0.63 mg/kg	0.63 mg/kg	–
Fc1ccc(Cn2c(NC3CCN(CCNC(=S)Nc4ccccn4)CC3)nc3ccccc32)cc1 [Compound 105, N-[2-[4-[[1-[(4-fluorophenyl)methyl]-1H-benzimidazol-2-yl]amino]-1-piperidinyl]ethyl]-N'-(2-pyridinyl)thiourea]	0.63 mg/kg	0.63 mg/kg	–
Nc1cccnc1NC(=S)NCCN1CCC(Nc2nc3ccccc3n2Cc2ccc(F)cc2)CC1 [Compound 107, N-(3-amino-2-pyridinyl)-N'-[2-[4-[[1-[(4-fluorophenyl)methyl]-1H-benzimidazol-2-yl]amino]-1-piperidinyl]ethyl]thiourea]	0.16 mg/kg	0.31 mg/kg	–
O=C(O)/C=C/C(=O)O.O=C(O)/C=C/C(=O)O.O=C(OCCN1CCC(Nc2nc3ccccc3n2Cc2ccc(F)cc2)CC1)c1ccc2ccccc2n1 [Compound 112, [2-[4-[[1-[(4-fluorophenyl)methyl]-1H-benzimidazol-2-yl]amino]-1-piperidinyl]ethyl]-2-quinolinecarboxylate (E)-2-butenedioate (1:2)]	0.04 mg/kg	0.63 mg/kg	–
Nc1nccnc1C(=O)NCCN1CCC(Nc2nc3ccccc3n2Cc2ccc(F)cc2)CC1 [Compound 113, 3-amino-N-[2-[4-[[1-[(4-fluorophenyl)methyl]-1H-benzimidazol-2-yl]amino]-1-piperidinyl]ethyl]-2-pyrazinecarboxamide]	0.04 mg/kg	0.16 mg/kg	–
O=C(NCCN1CCC(Nc2nc3ccccc3n2Cc2ccc(F)cc2)CC1)c1ccc(Cl)nc1.O=C(O)/C=C/C(=O)O.O=C(O)/C=C/C(=O)O [Compound 116, 6-chloro-N-[2-[4-[[1-[(4-fluorophenyl)methyl]-1H-benzimidazol-2-yl]amino]-1-piperidinyl]ethyl]-3-pyridinecarboxamide (E)-2-butenedioate (1:2)]	0.31 mg/kg	2.5 mg/kg	–
N#CCN1CCC(Nc2nc3ncccc3n2Cc2ccc(F)cc2)CC1 [Intermediate 79]	0.16 mg/kg	0.63 mg/kg	–
CN(C)CCCSc1ccccc1NC(=O)/C=C/c1ccccc1 [cinanserin]	–	–	prevent completely
CN1CCC(=C2c3ccccc3C=Cc3ccccc32)CC1 [cyproheptadine]	–	–	prevent completely
CN1C[C@H](CNC(=O)OCc2ccccc2)C[C@@H]2c3cccc4c3c(cn4C)C[C@H]21 [metergoline]	–	–	prevent completely
CC[C@@H](CO)NC(=O)[C@@H]1C=C2c3cccc4c3c(cn4C)C[C@H]2N(C)C1 [methysergide]	–	–	prevent completely
CN1CCN2c3ccccc3Cc3ccccc3C2C1 (stereo not shown) [mianserin]	–	–	prevent completely
NC(=O)C1(N2CCCCC2)CCN(CCCC(=O)c2ccc(F)cc2)CC1 [pipamperone]	–	–	prevent completely
CN1CCC(=C2c3ccccc3CCc3sccc32)CC1 [pizotifen]	–	–	prevent completely
O=C(CCCN1CCC2(CC1)C(=O)NCN2c1ccccc1)c1ccc(F)cc1 [spiperone]	–	–	prevent completely
